In US11986540B2, “Compositions including pafolacianine for the identification of malignant lesions” (ON TARGET LABORATORIES, LLC., priority 2022, dated 2024):
Like-named read-outs stand apart in the source and are kept apart here.

How the values were obtained:
[1] = test system: FR-positive KB cell tumor xenografts; assay: Whole body imaging and tissue distribution, FR-positive KB tumor xenografts; type: in vivo, mice
Experimental: Whole body imaging and tissue distribution of pafolacianine and OTL0039 was performed in female nu/nu mice bearing FR-positive KB cell tumor xenografts. […] This observation was consistent with the lower binding affinity of the D-isomer for FR compared with the L-isomer. Tumor fluorescence was brighter in mice receiving pafolacianine compared with other folate-conjugated near infrared dyes such as LS288, IR800 and ZW800.
The optimal dose range for pafolacianine with respect to tumor-to-background ratio in FR-positive tumor-bearing mice was 1 to 30 nmol/mouse, with lower fluorescence intensity observed in tumors at a lower dose (0.3 nmol) and higher fluorescence intensity observed in other tissues at doses above 30 nmol. In a second experiment, pafolacianine whole body imaging and tissue distribution was examined again; however, this experiment was performed in female nu/nu mice bearing FR-negative A549 cell tumor xenografts.

[2] = Embryo-fetal development study in rabbits; type: in vivo
Experimental: Pafolacianine was intravenously administered at doses of, during the period of organogenesis namely, 0.015, 0.15, and 1.5 mg/kg/day from gestational day (GD) 6 to GD17 in rats (human equivalent doses (HEDs) of 0.002, 0.024 and 0.242 mg/kg/day) and 0.3, 1, and 3 mg/kg/day from GD7 to GD20 in rabbits (HEDs of 0.097, 0.323 and 0.968 mg/kg/day). […] No-Observed-Adverse-Effect-Levels were 1.5 mg/kg/day in rats and 3 mg/kg/day in rabbits.

ovarian cancer lesion = assay: Randomized, multicenter, open-label study: detection of ovarian cancer lesions under fluorescent light; type: in vivo, human
Experimental: The safety and efficacy of the compositions disclosed herein was evaluated in a randomized, multicenter, open-label study. The study enrolled 178 women diagnosed with ovarian cancer or with high clinical suspicion of ovarian cancer scheduled to undergo primary surgical cytoreduction, interval debulking, or recurrent ovarian cancer surgery. One hundred and fifty women highly suspicious for or with confirmed ovarian cancer received a composition including pafolacianine (dosed at 0.025 mg/kg at least 1 hour before initiation of fluorescence imaging). Among them, 134 women with mean age 60 (range 33 to 81) years received both normal light imaging evaluation and fluorescence imaging evaluation (the Intent-to-Image set).
The study assessed the proportion of patients with at least one evaluable ovarian cancer lesion confirmed by central pathology that was detected with compositions including pafolacianine under fluorescent light but not under normal light or palpation and not otherwise identified for resection prior to surgery. The detection proportion was estimated in women who underwent both normal light and fluorescent light (Intent-to-Image Set), see Table 1.

[3] = Phase 1a pharmacokinetics in healthy volunteers, single IV administration; type: in vivo, human; settings: for AUC(0-t) / Tmax / AUC(0-inf) / clearance / Cmax / half-life / Vd: human, plasma, intravenous
Description: A total of 73 potentially eligible healthy volunteers gave written acknowledgement of informed consent to participate in a Phase 1a study to assess the safety and pharmacokinetics of pafolacianine versus placebo. Fifty-four were found suitable for participation, of which 30 were enrolled in the study. Twenty-four subjects were white, 1 subject was Black/African-American, 1 was Asian, 1 was mixed race and 3 were of another race.
The pharmacokinetic (PK) analysis population was defined as all subjects who were randomized and received study treatment. Of note, the drug infusion was stopped prematurely in 1 subject, and interrupted in another subject. The pharmacokinetics of pafolacianine following single IV administration of 0.025, 0.05, 0.1, or 0.2 mg/kg was determined using non-compartmental analysis; the key PK parameters are summarized in Table 7.

[4] = Plasma protein binding, equilibrium dialysis, human plasma; type: in vitro ADME; settings: human, plasma
Experimental: (§1) The plasma protein binding of pafolacianine was studied in vitro in fresh human, Sprague Dawley rat, and Beagle dog plasma using equilibrium dialysis. Pafolacianine was introduced into plasma samples, in duplicate, resulting in a final concentration of 5 μM. The mean (±SD) percentage of plasma protein bound pafolacianine was 99.1±0.1%, 98.6±0.1%, and 93.7±1.5% for rat, dog and human, respectively. Pafolacianine was highly bound to plasma protein in all species examined.

plasma protein = assay: as above; type: in vitro ADME; settings: human plasma, 5 μM
Experimental: as §1

[5] = dose escalated 8-fold (0.025 to 0.2 mg/kg)
[6] = 0.025 mg/kg, in 20 ml 0.9% NaCl, 10- and 60-min infusion
[7] = 0.025 mg/kg, in 220 ml 5% dextrose, 60-min infusion
[8] = 0.05 mg/kg, in 220 ml 5% dextrose, 60-min infusion
[9] = 0.1 mg/kg, in 220 ml 5% dextrose, 60-min infusion
[10] = 0.2 mg/kg, in 220 ml 5% dextrose, 60-min infusion
[11] = 0.2 mg/kg, with pre-treatment of antihistamine (clemastine)

CC1(C)C(=CC=C2CCCC(C=CC3=[N+](CCCCS(=O)(=O)[O-])c4ccc(S(=O)(=O)O)cc4C3(C)C)=C2Oc2ccc(CC(NC(=O)c3ccc(NCc4cnc5nc(N)[nH]c(=O)c5n4)cc3)C(=O)O)cc2)N(CCCCS(=O)(=O)O)c2ccc(S(=O)(=O)O)cc21 (stereo not drawn) [pafolacianine]
fluorescence in all other normal tissues ([1]; 2.5 hours after IV 10 nmol): little or no fluorescence signal | fluorescence in kidneys ([1]; 2.5 hours after IV 10 nmol): fluorescence signal also observed in the kidneys | fluorescence in tumors ([1]; 2.5 hours after IV 10 nmol): fluorescence primarily in the tumors | tumor-to-normal tissue fluorescence ratios ([1]; 2.5 hours after IV 10 nmol): excellent | tumor fluorescence compared with other folate-conjugated near infrared dyes (LS288, IR800, ZW800) ([1]; mouse, in vivo): brighter | Estimated systemic exposure relative to human exposure at 0.025 mg/kg (AUC comparison) ([2]; rabbit): 570 times | maternal toxicity and embryo-fetal development toxicity ([2]; rabbits, 0.3, 1, 3 mg/kg/day IV): No significant drug-related maternal toxicity and embryo-fetal development toxicity | No-Observed-Adverse-Effect-Level ([2]; rabbits, IV, GD7 to GD20): 3 mg/kg/day | Patients with at least one confirmed ovarian cancer evaluable lesion, Proportion (%) (ovarian cancer lesion; detected under fluorescent light but not normal light or palpation, Intent-to-Image set N = 134, 0.025 mg/kg): 0.269 (26.9%) | Patient-level false positive rate (ovarian cancer lesion; near-infrared fluorescent light, ovarian cancer lesions confirmed by central pathology): 20.2% | increase in AUClast [3, 5]: ~22 fold | increase in Cmax [3, 5]: ~12 fold | AUC(0-t) [3, 6]: 63.4 ng·h/mL | Tmax [3, 6]: 0.75 h | AUC(0-inf) ([3]; 0.025 mg/kg, in 20 ml 0.9% NaCl, 10- and 60-min infusion, read-out: AUC0-inf): 66.4 ng·h/mL | clearance ([3]; 0.025 mg/kg, in 20 ml 0.9% NaCl, 10- and 60-min infusion, read-out: CL (converted)): 443 mL/min | Cmax ([3]; 0.025 mg/kg, in 20 ml 0.9% NaCl, 10- and 60-min infusion, read-out: Cmax): 93.3 ng/mL | half-life ([3]; 0.025 mg/kg, in 20 ml 0.9% NaCl, 10- and 60-min infusion, read-out: T1/2 (converted)): 0.416 h | Vd ([3]; 0.025 mg/kg, in 20 ml 0.9% NaCl, 10- and 60-min infusion, read-out: Vz): 15.9 L | AUC(0-t) [3, 7]: 61.6 ng·h/mL | Tmax [3, 7]: 0.95 h | AUC(0-inf) ([3]; 0.025 mg/kg, in 220 ml 5% dextrose, 60-min infusion, read-out: AUC0-inf): 63.6 ng·h/mL | clearance ([3]; 0.025 mg/kg, in 220 ml 5% dextrose, 60-min infusion, read-out: CL (converted)): 477 mL/min | Cmax ([3]; 0.025 mg/kg, in 220 ml 5% dextrose, 60-min infusion, read-out: Cmax): 59.1 ng/mL | half-life ([3]; 0.025 mg/kg, in 220 ml 5% dextrose, 60-min infusion, read-out: T1/2 (converted)): 0.438 h | Vd ([3]; 0.025 mg/kg, in 220 ml 5% dextrose, 60-min infusion, read-out: Vz): 17.1 L | AUC(0-inf) ([3]; 0.025 mg/kg, read-out: area under the plasma concentration-time curve to infinity (AUCinf)): 63.6 ± 12.6 ng·h/mL | half-life ([3]; 0.025 mg/kg, read-out: elimination half-life (converted)): 0.44 ± 0.23 h | Cmax ([3]; 0.025 mg/kg, read-out: mean maximum plasma concentration (Cmax)): 59.1 ± 5.94 ng/mL | clearance ([3]; 0.025 mg/kg, read-out: mean plasma clearance (converted)): 477 mL/min | AUC(0-t) [3, 8]: 250 ng·h/mL | Tmax [3, 8]: 1.03 h | AUC(0-inf) ([3]; 0.05 mg/kg, in 220 ml 5% dextrose, 60-min infusion, read-out: AUC0-inf): 258 ng·h/mL | clearance ([3]; 0.05 mg/kg, in 220 ml 5% dextrose, 60-min infusion, read-out: CL (converted)): 245 mL/min | Cmax ([3]; 0.05 mg/kg, in 220 ml 5% dextrose, 60-min infusion, read-out: Cmax): 184 ng/mL | half-life ([3]; 0.05 mg/kg, in 220 ml 5% dextrose, 60-min infusion, read-out: T1/2 (converted)): 0.931 h | Vd ([3]; 0.05 mg/kg, in 220 ml 5% dextrose, 60-min infusion, read-out: Vz): 19.2 L | AUC(0-t) [3, 9]: 785 ng·h/mL | Tmax [3, 9]: 1.02 h | AUC(0-inf) ([3]; 0.1 mg/kg, in 220 ml 5% dextrose, 60-min infusion, read-out: AUC0-inf): 799 ng·h/mL | clearance ([3]; 0.1 mg/kg, in 220 ml 5% dextrose, 60-min infusion, read-out: CL (converted)): 161 mL/min | Cmax ([3]; 0.1 mg/kg, in 220 ml 5% dextrose, 60-min infusion, read-out: Cmax): 450 ng/mL | half-life ([3]; 0.1 mg/kg, in 220 ml 5% dextrose, 60-min infusion, read-out: T1/2 (converted)): 1.64 h | Vd ([3]; 0.1 mg/kg, in 220 ml 5% dextrose, 60-min infusion, read-out: Vz): 22.2 L | AUC(0-t) [3, 10]: 1310 ng·h/mL | Tmax [3, 10]: 1.09 h | AUC(0-inf) ([3]; 0.2 mg/kg, in 220 ml 5% dextrose, 60-min infusion, read-out: AUC0-inf): 1340 ng·h/mL | clearance ([3]; 0.2 mg/kg, in 220 ml 5% dextrose, 60-min infusion, read-out: CL (converted)): 167 mL/min | Cmax ([3]; 0.2 mg/kg, in 220 ml 5% dextrose, 60-min infusion, read-out: Cmax): 640 ng/mL | half-life ([3]; 0.2 mg/kg, in 220 ml 5% dextrose, 60-min infusion, read-out: T1/2 (converted)): 2.66 h | Vd ([3]; 0.2 mg/kg, in 220 ml 5% dextrose, 60-min infusion, read-out: Vz): 38.8 L | AUC(0-t) [3, 11]: 1400 ng·h/mL | Tmax [3, 11]: 1 h | AUC(0-inf) ([3]; 0.2 mg/kg, with pre-treatment of antihistamine (clemastine), read-out: AUC0-inf): 1430 ng·h/mL | clearance ([3]; 0.2 mg/kg, with pre-treatment of antihistamine (clemastine), read-out: CL (converted)): 170 mL/min | Cmax ([3]; 0.2 mg/kg, with pre-treatment of antihistamine (clemastine), read-out: Cmax): 765 ng/mL | half-life ([3]; 0.2 mg/kg, with pre-treatment of antihistamine (clemastine), read-out: T1/2 (converted)): 2.4 h | Vd ([3]; 0.2 mg/kg, with pre-treatment of antihistamine (clemastine), read-out: Vz): 36 L | clearance ([3]; 0.025 to 0.2 mg/kg, read-out: clearance over the dose range): 167 to 483 mL/min | half-life ([3]; 0.025 to 0.2 mg/kg, read-out: half-life values range): 0.4 to 2.7 h | Vd ([3]; read-out: mean volume of distribution (Vz)): 17.1 ± 5.99 L | fraction unbound at 5 μM [4]: 0.063 | mean (±SD) percentage of plasma protein bound (plasma protein): 93.7±1.5%
